Results: patent publication US20140328940A1, “MODULATION OF AXON DEGENERATION” (Genentech, Inc., priority 2009, published 2014)

Experiments:
[1] = toxin-induced degeneration of sympathetic neurons (MTT assay); type: cell-based; conditions: Sprague-Dawley, rat, primary sympathetic neurons from cervical ganglia, 24 hour vincristine, read-out: % viability (normalized)
Description: Sympathetic cervical ganglia were dissected from postnatal day 1 Sprague-Dawley rats (Charles River Labs) and collected in a dish containing Ultraculture media (Lonza) with 5% fetal bovine serum (Invitrogen). Ganglia were washed twice with serum-free Ultraculture media, and a final concentration of 0.1% trypsin (Worthington) was added and incubated with the tissue at 37° C. for 30 minutes. One percent DNase (Roche) solution in PBS was added to the ganglia and incubated at room temperature for 1-2 minutes. Ganglia were washed with Ultraculture and allowed to settle to the bottom of the tube. All wash media were removed and 1 mL plating media containing Ultraculture, 5% rat serum, 1% penicillin-streptomycin, 1% glutamax, 7 μM cytosine arabinoside (Sigma), and 50 ng/mL nerve growth factor (2.5S, Cedarlane Laboratory) was added to the tube. Ganglia were dissociated by trituration using a pipet (Rainin). The cell slurry was filtered over a […] cell strainer (Falcon) and cell number was counted. Sympathetic neurons were plated at a density of 5000-7500 cells/well (96-well dish), 200,000 cells/well (6-well plate), or 100,000 cells/well (8-well chamber slide) and grown for 4-5 days in 5% CO2 at 37° C. Every other day neurons were fed with fresh plating media containing 5-10 ng/mL NGF.
NGF withdrawal assays were performed as described in Example 14A. […]

[2] = vincristine challenge of cortical neurons, viability assay; type: cell-based; conditions: rat, primary E18 cortical neurons; 12 hour vincristine (300 nM); read-out: % Viability (normalized)
Description: (§1) Cortical neurons were isolated using the following procedure. Rat E18 cortices devoid of meninges were dissected into ice-cold neurobasal media (Invitrogen). Cortices were dissociated in a final concentration of 0.1% trypsin/PBS (Worthington) for 30 minutes at 37° C. A final concentration of 0.1% RNase (Roche) was added to the tube and tissue was incubated at room temperature for 1 minute. Tissue was washed once with warm neurobasal media and the tissue was allowed to settle in the tube before 1 mL of neurobasal media containing 2% B27 supplement (Invitrogen) was added. Tissue was dissociated by trituration with a P1000 pipet (Rainin). The cells were counted and, for some experiments, transfected with siRNAs using a Biosystem 96-well nucleofector (Amaxa).
(§2) Cells were plated in 6- or 8-well chambers or 96-well poly-D-lysine coated dishes (BD Biosciences) at plated cell densities of 2×10^6 cells/well, 1.25-2×10^5 cells/well, or 1×10^4 cells/well, respectively, for siRNA experiments (densities that allow for some cell death normally associated with the electroporation process). […] Gene silencing was assayed 3-4 days after plating by quantitative reverse transcriptase polymerase chain reaction (qRT-PCR). […] Each reaction containing 10 ng of RNA was run in triplicate using the Quantifect SYBR Green RT-PCR kit (Qiagen) with DLK-, JNK1-, JNK2-, or JNK3-specific primers. […]

[3] = tested on: cortical neurons; test: vincristine challenge of cortical neurons, LDH assay; type: cell-based, rat; conditions: 20 hour vincristine (300 nM)
Description: as §1, §2

## CC[C@]1(O)C[C@H]2CN(CCc3c([nH]c4ccccc34)[C@@](C(=O)OC)(c3cc4c(cc3OC)N(C=O)[C@H]3[C@@](O)(C(=O)OC)[C@H](OC(C)=O)[C@]5(CC)C=CCN6CC[C@]43[C@@H]65)C2)C1 [vincristine]
[1]
  viability at 24 h: 28%
[2]
  viability at 12 h, 0.3 µM: 77%
[3]
  % cell death (normalized): 100%
